pKd: −log10 of the molar value.
Molecular target: T1, RARγ (Homo sapiens, UniProt P13631)
T1 sequence (P13631 1-454): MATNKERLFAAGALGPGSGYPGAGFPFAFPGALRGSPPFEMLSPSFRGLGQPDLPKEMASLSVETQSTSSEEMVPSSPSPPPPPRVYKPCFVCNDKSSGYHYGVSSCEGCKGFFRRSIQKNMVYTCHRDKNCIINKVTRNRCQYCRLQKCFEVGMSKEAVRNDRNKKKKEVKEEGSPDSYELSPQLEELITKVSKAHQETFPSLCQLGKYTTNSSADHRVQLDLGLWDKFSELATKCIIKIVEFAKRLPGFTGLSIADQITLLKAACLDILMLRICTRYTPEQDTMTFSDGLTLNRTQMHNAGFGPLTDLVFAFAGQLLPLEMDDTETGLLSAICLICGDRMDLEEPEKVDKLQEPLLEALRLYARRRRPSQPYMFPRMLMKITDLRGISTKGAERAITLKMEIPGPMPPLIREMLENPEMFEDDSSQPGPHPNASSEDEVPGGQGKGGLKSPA
Experiment: displacement assay, agonist binding affinity
Details: read-out: Binding Affinities for RARγ
Experimental: Binding assays are performed using a classic competition assay format in which cloned receptor RAR molecules are first loaded with radiolabeled all-trans-retinoic acid […] and then the amount of radioactivity liberated with increasing concentration of test compound is measured.

CC1(C)CCC(C)(C)c2c1cc(C(=O)Nc1cc(F)c(C(=O)O)c(F)c1)c(O)c2Cl [IRX5183]
pKd: < 5.00

— patent US11786555B2, “RAR selective agonists in combination with immune modulators for cancer immunotherapy” (IO THERAPEUTICS, INC., priority 2017, dated 2023)
